Target: T1, Low affinity immunoglobulin epsilon Fc receptor (Homo sapiens, UniProt P06734)
T1 sequence (P06734 whole entry): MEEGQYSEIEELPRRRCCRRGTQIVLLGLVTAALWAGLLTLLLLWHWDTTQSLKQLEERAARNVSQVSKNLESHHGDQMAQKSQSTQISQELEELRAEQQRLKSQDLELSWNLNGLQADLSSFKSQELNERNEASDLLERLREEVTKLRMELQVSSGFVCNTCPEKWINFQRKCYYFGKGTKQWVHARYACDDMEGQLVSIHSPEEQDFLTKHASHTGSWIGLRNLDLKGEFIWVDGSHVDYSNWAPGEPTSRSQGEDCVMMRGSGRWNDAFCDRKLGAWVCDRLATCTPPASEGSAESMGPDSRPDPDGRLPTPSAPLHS
Assay: ChEBML_41676
Description: (§1) Tested for inhibition against CD23 (IgE receptor) proteolysis in membranes derived from RPM18866 cells ( a human B-cell line); value ranges from 5-10

Point of comparison: `CC(C)SC[C@H](CC(=O)NO)C(=O)N[C@@H](Cc1ccccc1)C(=O)NCc1ccccc1` [(R)-N*1*-((S)-1-Benzylcarbamoyl-2-phenyl-ethyl)-N*4*-hydroxy-2-isopropylsulfanylmethyl-succinamide], IC50 8 µM. Against it:
- O=C(C[C@@H](Cc1ccc2ccccc2c1)C(=O)N[C@@H](Cc1ccccc1)C(=O)NCc1ccccc1)NO [(R)-N*1*-((S)-1-Benzylcarbamoyl-2-phenyl-ethyl)-N*4*-hydroxy-2-naphthalen-2-ylmethyl-succinamide] — 8-fold lower, 1 µM

Target: not listed separately
Assay: Tested for inhibition against CD23 (IgE receptor) proteolysis in membranes derived from RPM18866 cells (a human B-cell line)

Point of comparison: `O=C(C[C@@H](CC1CCCCC1)C(=O)N[C@@H](Cc1ccccc1)C(=O)NCc1ccccc1)NO` [(R)-N*1*-((S)-1-Benzylcarbamoyl-2-phenyl-ethyl)-2-cyclohexylmethyl-N*4*-hydroxy-succinamide], IC50 3.7 µM. Against it:
- CC(C)S[C@H](CC(=O)NO)C(=O)N[C@@H](Cc1ccccc1)C(=O)NCc1ccccc1 [(R)-N*1*-((S)-1-Benzylcarbamoyl-2-phenyl-ethyl)-N*4*-hydroxy-2-isopropylsulfanyl-succinamide] — 2.2-fold higher, 8 µM
- CN(C)C[C@H](CC(=O)NO)C(=O)N[C@@H](Cc1ccccc1)C(=O)NCc1ccccc1 [(S)-N*1*-((S)-1-Benzylcarbamoyl-2-phenyl-ethyl)-2-dimethylaminomethyl-N*4*-hydroxy-succinamide] — higher, > 20 µM
- O=C(C[C@@H](O)C(=O)N[C@@H](Cc1ccccc1)C(=O)NCc1ccccc1)NO [(R)-N*1*-((S)-1-Benzylcarbamoyl-2-phenyl-ethyl)-2,N*4*-dihydroxy-succinamide] — higher, > 20 µM
- NC(=O)CC[C@H](CC(=O)NO)C(=O)N[C@@H](Cc1ccccc1)C(=O)NCc1ccccc1 [(R)-3-((S)-1-Benzylcarbamoyl-2-phenyl-ethylcarbamoyl)-hexanedioic acid 6-amide 1-hydroxyamide] — higher, > 20 µM
- CC(C)C[C@@H](CC(=O)NO)C(=O)N[C@@H](Cc1ccccc1)C(=O)NCc1ccccc1 [(S)-N*1*-((S)-1-Benzylcarbamoyl-2-phenyl-ethyl)-N*4*-hydroxy-2-isobutyl-succinamide] — higher, > 20 µM
- O=C(C[C@H](C(=O)N[C@@H](Cc1ccccc1)C(=O)NCc1ccccc1)c1ccccc1)NO [(S)-N*1*-((S)-1-Benzylcarbamoyl-2-phenyl-ethyl)-N*4*-hydroxy-2-phenyl-succinamide] — 2.3-fold lower, 1.6 µM
- O=C(C[C@@H](CC1CCCC1)C(=O)N[C@@H](Cc1ccccc1)C(=O)NCc1ccccc1)NO [(R)-N*1*-((S)-1-Benzylcarbamoyl-2-phenyl-ethyl)-2-cyclopentylmethyl-N*4*-hydroxy-succinamide] — 18-fold lower, 0.2 µM
- O=C(C[C@H](C(=O)N[C@@H](Cc1ccccc1)C(=O)NCc1ccccc1)c1ccc(-c2ccccc2)cc1)NO [(S)-N*1*-((S)-1-Benzylcarbamoyl-2-phenyl-ethyl)-2-biphenyl-4-yl-N*4*-hydroxy-succinamide] — higher, > 20 µM
- O=C(C[C@@H](CCc1ccccc1)C(=O)N[C@@H](Cc1ccccc1)C(=O)NCc1ccccc1)NO [(R)-N*1*-((S)-1-Benzylcarbamoyl-2-phenyl-ethyl)-N*4*-hydroxy-2-phenethyl-succinamide] — within 1.5-fold, 5 µM
- C[C@H](CC(=O)NO)C(=O)N[C@@H](Cc1ccccc1)C(=O)NCc1ccccc1 [(R)-N*1*-((S)-1-Benzylcarbamoyl-2-phenyl-ethyl)-N*4*-hydroxy-2-methyl-succinamide] — higher, > 20 µM
- O=C(C[C@H](C(=O)N[C@@H](Cc1ccccc1)C(=O)NCc1ccccc1)c1cccc2ccccc12)NO [(S)-N*1*-((S)-1-Benzylcarbamoyl-2-phenyl-ethyl)-N*4*-hydroxy-2-naphthalen-1-yl-succinamide] — higher, > 20 µM
- O=C(CCC(=O)N[C@@H](Cc1ccccc1)C(=O)NCc1ccccc1)NO [N-((S)-1-Benzylcarbamoyl-2-phenyl-ethyl)-N'-hydroxy-succinamide] — higher, > 20 µM

Target: T1, Low affinity immunoglobulin epsilon Fc receptor
Assay: as §1

For `O=C(C[C@H](C(=O)N[C@@H](Cc1ccccc1)C(=O)NCc1ccccc1)C1CCCCC1)NO` [(S)-N*1*-((S)-1-Benzylcarbamoyl-2-phenyl-ethyl)-2-cyclohexyl-N*4*-hydroxy-succinamide], the IC50 was 5 µM.

From BindingDB's records for doi:10.1016/s0960-894x(97)10148-2 (Smithkline Beecham Pharmaceuticals, 1999)
